Data as given in ChEMBL document CHEMBL1201862, “PubChem BioAssay data set” (2004).
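Values below derive from 48-hour exposures of cells grown in 96-well plates, with endpoints linearly interpolated between the two concentrations bracketing the appropriate inhibition level. Here, GI50 denotes the concentration required for 50% inhibition of growth.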 Calls of active or inactive are those of the source. No stated cut-off is given here; in the data, active = GI50 up to about 1.1 µM and inactive = higher.

Assays:
Experiment in all cases: growth of human tumour cells (NCI), 48 h
OVCAR-5 = tested on: OVCAR-5
EKVX = tested on: EKVX
OVCAR-3 = tested on: OVCAR-3
HT-29 = tested on: HT-29
SNB-19 = tested on: SNB-19
SW-620 = tested on: SW-620
786-0 = tested on: 786-0
CAKI-1 = tested on: CAKI-1
HCT-116 = tested on: HCT-116
UACC-257 = tested on: UACC-257
SF-268 = tested on: SF-268
SF-539 = tested on: SF-539
SR = tested on: SR
KM12 = tested on: KM12
RXF 393 = tested on: RXF 393
RPMI-8226 = tested on: RPMI-8226
HCC 2998 = tested on: HCC 2998

Measured: GI50

C/C=C/C=C/[C@H]1Cc2cc(O)cc(O)c2O1
inactive: OVCAR-5 > 100 µM | EKVX 55.5 µM | OVCAR-3 33 µM | HT-29 72.4 µM | SNB-19 80.7 µM | SW-620 58.6 µM | 786-0 > 100 µM | CAKI-1 58.9 µM | HCT-116 81.3 µM | UACC-257 28.4 µM | SF-268 > 100 µM | SF-539 > 100 µM | SR 78.5 µM | KM12 61 µM | RXF 393 > 100 µM

C=CCC(OCCOCC)c1cc(OCCOCC)ccc1OC (stereo unspecified)
inactive: OVCAR-5 > 100 µM | RPMI-8226 > 100 µM | EKVX > 100 µM | OVCAR-3 > 100 µM | HT-29 > 100 µM | SNB-19 > 100 µM | SW-620 > 100 µM | 786-0 > 100 µM | CAKI-1 > 100 µM | UACC-257 > 100 µM | SF-268 > 100 µM | SF-539 > 100 µM | KM12 > 100 µM | HCC 2998 > 100 µM | RXF 393 > 100 µM

CCOc1ccc(NCC2CC/C(=C\c3ccccc3OC)C2=O)cc1 (stereo unspecified)
active: RPMI-8226 0.92 µM
inactive: OVCAR-5 18.5 µM | EKVX 17.4 µM | OVCAR-3 6.37 µM | HT-29 3.3 µM | SNB-19 15.9 µM | SW-620 4.23 µM | 786-0 3.01 µM | CAKI-1 12.5 µM | HCT-116 4.33 µM | UACC-257 7.38 µM | SF-268 7.29 µM | SF-539 10.3 µM | KM12 2.99 µM | HCC 2998 12.8 µM | RXF 393 8.91 µM

O=C(O)c1ccccc1[Se][Se]c1ccccc1C(=O)O
inactive: RPMI-8226 66.2 µM | OVCAR-3 51.1 µM | HT-29 35.1 µM | SNB-19 11.2 µM | SW-620 > 100 µM | 786-0 75.2 µM | CAKI-1 61.8 µM | HCT-116 37.4 µM | UACC-257 49.5 µM | SF-268 40.2 µM | SF-539 23.4 µM | KM12 26.8 µM | HCC 2998 89.7 µM | RXF 393 38.3 µM

O=c1[nH]c(=O)n(C2CC(O)C(CO)O2)cc1C#Cc1cc(F)cc(F)c1 (stereo unspecified)
inactive: OVCAR-5 > 100 µM | RPMI-8226 > 100 µM | EKVX > 100 µM | OVCAR-3 > 100 µM | HT-29 > 100 µM | SNB-19 > 100 µM | SW-620 > 100 µM | 786-0 > 100 µM | CAKI-1 > 100 µM | UACC-257 > 100 µM | SF-268 > 100 µM | SF-539 > 100 µM | KM12 > 100 µM | HCC 2998 > 100 µM

CC(=O)NCc1c(C(N)=O)ncn1Cc1ccccc1
inactive: RPMI-8226 > 100 µM | EKVX > 100 µM | OVCAR-3 > 100 µM | HT-29 > 100 µM | SNB-19 > 100 µM | SW-620 > 100 µM | 786-0 > 100 µM | CAKI-1 > 100 µM | HCT-116 > 100 µM | UACC-257 > 100 µM | SF-539 > 100 µM | HCC 2998 > 100 µM | RXF 393 > 100 µM

COc1ccc2cc1Oc1ccc(cc1)CC1c3cc4c(cc3CCN1C)Oc1c(OC)cc3c(c1O4)C(C2)N(C)CC3 (stereo unspecified)
inactive: OVCAR-5 13.6 µM | EKVX 9.79 µM | OVCAR-3 5.81 µM | HT-29 1.81 µM | SNB-19 3.86 µM | SW-620 1.69 µM | 786-0 7.66 µM | HCT-116 1.7 µM | SF-268 2.77 µM | SF-539 2.13 µM | SR 1.53 µM | KM12 2.11 µM | HCC 2998 3.05 µM | RXF 393 1.64 µM

O=C(OCc1nc2ccc(Br)cc2c(=O)n1-c1ccccc1)c1ccccc1O
inactive: OVCAR-5 > 100 µM | RPMI-8226 29.4 µM | EKVX 66.1 µM | OVCAR-3 2.32 µM | HT-29 84.9 µM | SW-620 > 100 µM | 786-0 74.8 µM | CAKI-1 39.8 µM | HCT-116 > 100 µM | UACC-257 61.5 µM | SF-268 78.9 µM | SF-539 > 100 µM | KM12 > 100 µM | HCC 2998 > 100 µM | RXF 393 > 100 µM

N#Cc1c(-c2ccco2)cc(-c2ccc(NCc3nc4ccccc4[nH]3)cc2)nc1N
inactive: OVCAR-5 32.3 µM | RPMI-8226 19.2 µM | OVCAR-3 20.1 µM | HT-29 32.6 µM | SNB-19 20.5 µM | SW-620 35.3 µM | 786-0 28.6 µM | CAKI-1 33.8 µM | HCT-116 18.9 µM | SF-268 30.1 µM | SF-539 19.5 µM | KM12 18.7 µM | HCC 2998 21.8 µM | RXF 393 16 µM

COc1cc(/C=C(\NC(=O)c2ccccc2)c2nc3c(O)nc(S)nc3[nH]2)cc(OC)c1OC
inactive: OVCAR-5 > 100 µM | EKVX > 100 µM | OVCAR-3 > 100 µM | HT-29 > 100 µM | SNB-19 > 100 µM | SW-620 > 100 µM | 786-0 > 100 µM | CAKI-1 > 100 µM | SF-268 > 100 µM | SF-539 > 100 µM | SR > 100 µM | KM12 > 100 µM | HCC 2998 > 100 µM | RXF 393 > 100 µM

CCCC(Sc1ccccc1)P(=O)(c1ccccc1)c1ccccc1 (stereo unspecified)
inactive: RPMI-8226 19 µM | EKVX 24 µM | OVCAR-3 41.1 µM | SNB-19 > 100 µM | SW-620 41.9 µM | 786-0 37.7 µM | CAKI-1 42.3 µM | HCT-116 31.3 µM | UACC-257 35.1 µM | SF-268 32.5 µM | SF-539 35.1 µM | SR 20.6 µM | KM12 38.7 µM | RXF 393 41.8 µM

COC(=O)c1nc(C(=O)OC)c2c([nH]c3ccccc32)c1C(=O)OC
inactive: OVCAR-5 > 100 µM | OVCAR-3 > 100 µM | HT-29 > 100 µM | SW-620 > 100 µM | 786-0 > 100 µM | CAKI-1 > 10 µM | HCT-116 > 100 µM | UACC-257 > 100 µM | SF-539 > 100 µM | SR 70.3 µM | KM12 > 100 µM | HCC 2998 > 100 µM | RXF 393 31.8 µM

COc1ccc2[nH]c3c(c2c1)[C@H](C)C[C@@H]1C(=O)N(c2ccccc2)C(=O)[C@H]31
inactive: OVCAR-5 91.8 µM | EKVX 23.9 µM | OVCAR-3 24 µM | SNB-19 29.4 µM | SW-620 32.4 µM | 786-0 22.8 µM | CAKI-1 33 µM | HCT-116 20.3 µM | UACC-257 56.1 µM | SF-268 26.6 µM | SF-539 21.2 µM | SR 26.2 µM | KM12 17.8 µM | HCC 2998 39.4 µM | RXF 393 29.6 µM

CS(=O)(=O)c1c(N)c2nc(Cl)cn2c2nc3ccccc3nc12
inactive: OVCAR-5 > 100 µM | RPMI-8226 > 100 µM | EKVX > 100 µM | OVCAR-3 > 100 µM | HT-29 > 100 µM | SNB-19 > 100 µM | SW-620 > 100 µM | 786-0 62.4 µM | CAKI-1 > 100 µM | HCT-116 > 100 µM | UACC-257 > 100 µM | SF-268 > 100 µM | SF-539 > 100 µM | SR > 100 µM | KM12 > 100 µM | HCC 2998 > 100 µM

CCOC(=O)/C(I)=C/c1cc(OC)c(OC)c(OC)c1
inactive: OVCAR-5 6.52 µM | RPMI-8226 4.02 µM | EKVX 15.8 µM | OVCAR-3 3.94 µM | HT-29 4.55 µM | SNB-19 7.64 µM | SW-620 3.55 µM | 786-0 4.44 µM | CAKI-1 4.27 µM | HCT-116 3.26 µM | UACC-257 10.8 µM | SF-268 1.36 µM | SF-539 9.08 µM | SR 2.98 µM | KM12 6.4 µM | HCC 2998 14.2 µM

CC(=O)Nc1ccc(S(=O)(=O)Nc2cnc3ccccc3n2)cc1
inactive: OVCAR-5 > 100 µM | RPMI-8226 > 100 µM | EKVX > 100 µM | OVCAR-3 > 100 µM | HT-29 > 100 µM | SNB-19 > 100 µM | SW-620 > 100 µM | 786-0 > 100 µM | CAKI-1 > 100 µM | UACC-257 > 100 µM | SF-268 > 100 µM | SF-539 > 100 µM | SR > 100 µM | KM12 > 100 µM | HCC 2998 > 100 µM | RXF 393 > 100 µM

CCCCCC(/C=C/[C@@H]1[C@H]2CC(=O)O[C@H]2C[C@H]1N1CCOCC1)OC1CCCO1 (stereo partly specified)
inactive: OVCAR-5 > 100 µM | RPMI-8226 > 100 µM | EKVX > 100 µM | OVCAR-3 > 100 µM | HT-29 > 100 µM | SNB-19 > 100 µM | SW-620 > 100 µM | 786-0 > 100 µM | CAKI-1 > 100 µM | HCT-116 > 100 µM | UACC-257 > 100 µM | SF-268 > 100 µM | SF-539 > 100 µM | KM12 > 100 µM | HCC 2998 > 100 µM | RXF 393 > 100 µM

O=C(C#Cc1cnc(O)nc1O)c1ccccc1
inactive: OVCAR-5 18.9 µM | RPMI-8226 7.76 µM | EKVX 12 µM | OVCAR-3 2.09 µM | HT-29 21.8 µM | SNB-19 17.3 µM | SW-620 6.76 µM | 786-0 12.2 µM | CAKI-1 18.2 µM | HCT-116 7 µM | UACC-257 11.5 µM | SF-268 13.6 µM | SF-539 4.04 µM | KM12 15.2 µM | HCC 2998 18.3 µM | RXF 393 1.7 µM
